# Data as given in patent US9522130B2, “Use of miR-221 and 222 lowering agents to prevent cardiovascular disease in diabetic subjects” (priority 2013, dated 2016).
# “Also recorded” adds a separate entry of the source.
# How the values were obtained:
# [1] = system: p27^Kip1; assay: p27Kip1 protein ELISA in injured femoral arteries; type: in vivo; settings: diabetic mice; Pluronic gel on injured femoral artery; 7 days
# Experimental: FIG. 9. Diabetes induces an increase in miR-221/222 that reduces p27^Kip1 levels in arteries Protein lysates were prepared from injured femoral arteries of diabetic and non-diabetic mice receiving a Pluronic gel containing either control oligonucleotide (NT) or 2′OMe-miR-222 (AS) after 7 days. Levels of p27^Kip1 protein levels were measured using an ELISA kit. Data is normalized to the ND. Data represent the mean±SEM and † indicates p<0.05 by ANOVA using Tukey's HSD.
# [2] = system: diabetic and non-diabetic mice; assay: Femoral artery wire injury, neointima formation / intimal thickening; type: in vivo
# Experimental: FIG. 1. Neointimal hyperplasia is increased in an mTOR-independent manner in diabetic mice. Femoral artery wire injury was performed in the mice in diabetic mice (DM) and non-diabetic mice […] and neointima formation was assessed at 14 days post-injury. […] Data represent the mean±SEM. † indicates p<0.05 by ANOVA with Tukey's HSD.
# FIG. 10. Diabetes induces an increase in miR-221/222 that increases intimal thickening. Intimal thickening was measured in the wire injured femoral arteries of diabetic and non-diabetic mice receiving a Pluronic gel containing either control oligonucleotide (NT) or 2′OMe-miR-222 (AS) after 14 days. Data represent the mean±SEM and † indicates p<0.05 by ANOVA using Tukey's HSD.
# FIG. 14. […] Mean intima:media ratios of ND and DM mice following femoral artery wire injury and implantation of a Pluronic-F 127 gel containing either vehicle or rapamycin (100 μg) with and without administration of the ERK pathway inhibitor, U0126 (7.5 mg/kg/d). Bars indicate p<0.05 by ANOVA.
# [3] = system: miR-221/222; assay: miR-221 and miR-222 levels in injured femoral arteries by quantitative real-time PCR; type: in vivo; settings: diabetic mice; Pluronic gel on injured femoral artery; 7 days
# Experimental: FIG. 7. Diabetes induces an increase in miR-221/222 levels in arteries. Total RNA was prepared from injured femoral arteries of diabetic and non-diabetic mice receiving a Pluronic gel containing either control oligonucleotide (NT) or 2′OMe-miR-222 (AS) for 7 days. Levels of miR-221 and miR-222 were measured using quantitative real-time PCR with U6 as a loading control. Data is normalized to the ND. Data represent the mean±SEM and † indicates p<0.05 by ANOVA using Tukey's HSD.
# [4] = system: miR-221/222; assay: miR-221/222 levels in VSMCs incubated with AMPK agonist; type: cell-based; settings: VSMCs from diabetic mice; 3 h incubation
# Experimental: FIG. 11. The increase in miR-221/222 in VSMCs from the DM mice is reversed by AMPK activation. miR-221/222 levels were measured in VSMCs from non-diabetic and diabetic mice incubated with vehicle (Con) and the AMPK agonist, Metformin (Met) for 3 h. Data represent the mean±SEM.
# FIG. 12. The increase in miR-221/222 in VSMCs from the DM mice is reversed by AMPK activation. miR-221/222 levels were measured in VSMCs from non-diabetic and diabetic mice incubated with vehicle (Con) and the AMPK agonist, AICAR for 3 h. Data represent the mean±SEM.
# [5] = system: non-diabetic animals; settings: previous reports (9); cited from earlier work
# [6] = system: p27^Kip1 mRNA; assay: Half-life of p27Kip1 mRNA in serum-stimulated VSMCs; type: cell-based; settings: VSMCs from diabetic mice stimulated with serum
# Experimental: FIG. 4. Increased ERK activation promotes loss of p27^Kip1 in diabetic mice. A) The ratio of phosphorylated (active) ERK to total ERK in the aortae of non-diabetic (ND) mice and diabetic mice receiving either vehicle (DM) or the ERK pathway inhibitor (DM+EI) U0126, ip, 7.5 mg/kg/d for 3 days). p27^Kip1 protein (B) and mRNA (C) levels in the same mice as in A. D and E) The half-life of p27^Kip1 mRNA in VSMCs from DM and ND mice stimulated with serum with and without the ERK pathway inhibitor PD98059 (D,PD) or siRNA targeting ERK (E, ERK siRNA). † indicate p<0.05 by ANOVA (B and D) or Student's t-test (E and F).
# [7] = system: miR-221/222; assay: miR-221/222 levels in internal mammary arteries of coronary artery bypass patients by real-time PCR; type: in vivo, human; settings: diabetic patients currently taking metformin (DMMet+), coronary artery bypass surgery
# Experimental: FIG. 13. miR-221/222 are reduced in the vasculature of diabetic patients taking the AMPK agonist metformin. miR-221/222 levels were measured using real-time PCR methods in the internal mammary arteries of non-diabetic (ND), diabetic subjects currently taking metformin (DMMet+), and diabetic subjects not taking metformin (DMMet−) undergoing coronary artery bypass surgery. […] Data represent the mean±SEM.
# [8] = system: miR-221/222; settings: diabetic mice; 3 d post-injury or sham
# Experimental: FIG. 6. […] Femoral artery wire injury or sham procedure was performed in the non-diabetic (ND) and diabetic (DM) mice and miR-221 levels were measured 3d post-injury. A group of MF-12 mice (Sham+EI) received a MEK1 inhibitor (U0126, […]). Data represent the mean±SEM.
compound,measurement,setting,value
"2′OMe-miR-222: silencing RNA, 2′-O-methylated, directly inhibiting miR-221/222; sequence 5′-ACCCAGUAGCCAGAUGUAGCU-3′ (likely SEQ ID NO 4) (all 2'-O-methyl, backbone not given here)",p27Kip1 protein levels,[1],restores levels of p27^Kip1 protein to normal levels
same,intimal thickening,"[2]; diabetic mice, Pluronic gel on wire injured femoral artery, 14 days",effective at reducing intimal thickening in the diabetic mice to levels similar to that of normal mice
same,miR-221/222 levels in the vasculature,[3],reduces miR-221/222 levels back to normal
NC(=O)c1ncn([C@@H]2O[C@H](CO)[C@@H](O)[C@H]2O)c1N [AICAR],miR-221/222 levels in VSMCs,[4],effective in reducing miR-221/222 in the VSMCs from diabetic mice to levels similar to VSMCs from non-diabetic mice
COc1cccc(-c2cc(=O)c3ccccc3o2)c1N [PD98059],cell proliferative aspect of intimal thickening following arterial injury,[5],not effective
same,accelerated degradation (half-life) of p27Kip1 mRNA,[6],effective at blocking the accelerated degradation
CN(C)C(=N)N=C(N)N [metformin],miR-221/222 levels in internal mammary arteries,[7],normal levels
same,miR-221/222 levels in VSMCs,[4],effective in reducing miR-221/222 in the VSMCs from diabetic mice to levels similar to VSMCs from non-diabetic mice
N#CC(=C(/N)Sc1ccccc1N)/C(C#N)=C(\N)Sc1ccccc1N [U0126],increase in miR-221/222 levels in the vasculature,[8],blocked
same,intimal hyperplasia following wire injury,"[2]; diabetic mice, U0126 7.5 mg/kg/d",reduces intimal hyperplasia
same,sensitivity of intimal thickening to rapamycin,"[2]; diabetic mice, U0126 7.5 mg/kg/d co-administered with local rapamycin 100 μg, 7.5 mg/kg/day",restores sensitivity to rapamycin; also recorded: restores the ability of rapamycin to intimal thickening
same,intimal thickening (intima:media ratio),"[2]; non-diabetic mice, U0126 7.5 mg/kg/d co-administered with local rapamycin",minimal effects
